“And” between values parts separate entries of the source, which are not always exact repeats. Equal entries are not always repeated.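 In this assay, cells in 96-well plates receive the compound at five concentrations for 48 hours. Endpoints are linearly interpolated between the surrounding concentrations. GI50 = concentration required for 50% inhibition of growth. The concentration for full growth arrest is given as TGI.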

We go through 28 compounds from PubChem BioAssay (NCI).

What all share (experiment): NCI tumour cell line growth inhibition, 48 h
For assay [1], the system named is HOP-18 NSCLC.
In assay [2] the test system is KM12 colon.
For assay [3], the system named is M19-MEL melanoma.
Assay [4] deals with OVCAR-3 ovarian.
The test system of assay [5] is RXF 393 renal.
In assay [6] the test system is SF-295 CNS.
Assay [7] relates to SNB-19 CNS.
For assay [8], the system named is U251 CNS.
Assay [9] relates to PC-3 prostate.
The subject of assay [10] is SR leukemia.

As for `CCCC1(CC(=O)O)OCCc2c1[nH]c1ccccc21` (stereo not given), the TGI in [1], in [2], in assay [3], in assay [4], in assay [5] and in assay [6] was over 100 µM in each case. Also, the TGI in [7] and in assay [8] was over 100 µM each time.
`COC(=O)C(=O)CC(=O)CCn1[nH]c(=O)c(Cl)c(Cl)c1=O`: the TGI in assay [2], in [3], in assay [4], in assay [5], in [6] and in assay [7] was over 100 µM each time. The same compound had a TGI in [8] of over 100 µM.
With `N[C@H](C(=O)O)[C@@H]1CC(Cl)=NO1`, the TGI is over 1000 µM in assay [1]; over 741 µM in [2]; 469 µM in [4]; over 1000 µM in assay [9]; 718 µM in assay [5]; over 908 µM in [6]. Besides, the TGI was over 661 µM in assay [7], over 583 µM in [10] and over 1000 µM in assay [8]. In addition, the GI50 is 31.4 µM in assay [4]; 11.5 µM in assay [9]; 7.59 µM and 2.63 µM in [6]; 16.8 µM and 5.14 µM in [7]; 3.44 µM in assay [10]; 9.73 µM in assay [8].
Turning to `COc1cc(NS(=O)(=O)c2ccc(C)cc2)c2nccnc2c1`, the TGI is over 100 µM in assay [1]; over 100 µM in [2]; 55 µM in assay [3]; over 100 µM in [4]; 64.7 µM in [5]; over 100 µM in assay [6]. Also, the TGI in [7] is over 100 µM; in [10], over 100 µM; in [8], 89.3 µM.
`N#C/C(=C/c1cccc(Oc2ccccc2)c1)c1ccccc1`: the TGI in assay [1], in assay [2], in assay [3], in assay [6], in [10] and in assay [8] was over 100 µM each time.
Turning to `CCC[CH2][Sn]([CH2]CCC)([O]C(=O)CN)[O]C(=O)CN`, the GI50 was over 100 µM in assay [2]; 49.7 µM in [3]; 27.8 µM in assay [4]; 16.2 µM in assay [5]; 34.5 µM in assay [6]; 45.5 µM in assay [7]. Further, the GI50 was 22.9 µM in [10] and 26 µM in [8]. Besides, the TGI in assay [2] was over 100 µM; in assay [3] it was over 100 µM; in assay [4] it was over 100 µM; in assay [5], 44.3 µM; in assay [6], over 100 µM; in assay [7] it was over 100 µM. In addition, the results for the TGI in assay [10] and in assay [8] were 95.6 µM and 80.7 µM, respectively.
Take `C[C@]12CC=CC(=O)[C@@]1(C)CCC(=O)C2`: the TGI in [2], in assay [3], in [4], in assay [5], in assay [6] and in assay [7] was over 100 µM throughout. Moreover, the TGI in assay [10] and in [8] was over 100 µM throughout.
In the case of `Cc1ccc(S(=O)(=O)OC2CC=CC2)cc1`, the TGI in [1], in assay [2], in [3], in assay [4], in assay [5] and in assay [6] was over 100 µM each time. The TGI in [7] and in assay [8] was over 100 µM throughout.
In the case of `Cc1ccc(S(=O)(=O)N/N=C2\CCCCC23CCC(=O)NC3)cc1` (stereo not given), the TGI in assay [1], in [2], in assay [3], in assay [4], in [5] and in assay [7] was over 100 µM in each case. Besides, the TGI in assay [10] and in assay [8] was over 100 µM each time.
In the case of `CC(=O)C1C(c2ccccc2)C2(C)OC(=O)C(C#N)C12C` (stereo not given), the TGI in assay [1], in [2], in assay [3], in assay [4], in assay [5] and in assay [6] was over 100 µM throughout. Besides, the TGI in assay [7] and in assay [8] was over 100 µM throughout.
On to `CCCCCCCCCCCCCP(=O)(O)O`, for which the TGI in assay [1], in assay [2], in assay [3], in assay [4], in assay [5] and in assay [6] was over 100 µM each time. Besides, the TGI in [7] and in assay [8] was over 100 µM throughout.
For the compound `NC1=NN(c2ccccc2)C(=O)C1C(=O)CCC(=O)Nc1cccc(Cl)c1` (stereo not given), the TGI in [1], in assay [2], in [3], in [4], in assay [5] and in assay [6] was over 100 µM each time. Besides, the TGI in [7] and in assay [8] was over 100 µM throughout.
Regarding `COc1ccc2nc3cc(Cl)ccc3c(Sc3ccc([N+](=O)[O-])cc3C)c2c1`, the TGI in [1], in assay [2], in [3], in assay [4], in [5] and in assay [6] was over 100 µM in each case. For the same compound, the TGI in assay [7], in assay [10] and in assay [8] was over 100 µM in each case.
As to `O=C1N/C(=C\[N+](=O)[O-])c2ccccc21`, the TGI in assay [1], in assay [2], in [3], in assay [4], in [5] and in assay [6] was over 100 µM in each case. In addition, the TGI in assay [7], in [10] and in assay [8] was over 100 µM in each case.
Regarding `O=C(Nc1cccc(O)c1)C(=O)C1C(=O)NC(=S)NC1=O`, the TGI in assay [1], in assay [3], in [4], in [5], in assay [6] and in assay [7] was over 100 µM throughout. Further, the TGI in [10] and in assay [8] was over 100 µM throughout.
As for `CCC1=CCN(c2cc(C)ccn2)OC1c1ccc(OC)cc1` (stereo not given), the TGI in [2] was over 100 µM; in assay [3] it was over 100 µM; in [4], over 100 µM; in [5] it was 58.1 µM; in assay [6], 70.8 µM; in [7], over 100 µM. Moreover, the TGI in assay [10] is 68.5 µM; in assay [8], 44.1 µM.
As for `O=C(Nc1ccc(C(F)(F)F)cc1[N+](=O)[O-])C(=O)C1NC(=S)NC1=O` (stereo not given), the TGI in [1], in assay [2], in [3], in assay [4], in assay [5] and in assay [6] was over 100 µM each time. Further, the TGI in [7], in assay [10] and in [8] was over 100 µM in each case.
With `NC(CCCC(N)P(=O)(O)O)P(=O)(O)O` (stereo not given), the TGI in assay [1], in assay [2], in [3], in assay [4], in assay [5] and in assay [6] was over 100 µM throughout. In assay [8], this compound gave a TGI of over 100 µM.
Take `CC(=O)Oc1cc2c(cc1OC(C)=O)C1(C)CCC2(C)c2cc(OC(C)=O)c(OC(C)=O)cc21`: the TGI in [2] is 28.8 µM; in assay [3], 75.2 µM; in assay [4] it was 29.7 µM; in [5], over 100 µM; in assay [6] it was 58.8 µM; in assay [7], 22.4 µM.
Consider `CC(=O)c1ccc(NC(=O)/C(CC(=O)c2sc(-c3cccnc3)nc2C)=N/NC(N)=O)cc1`, for which the TGI in assay [2], in assay [3], in assay [4], in [6], in assay [7] and in assay [10] was over 100 µM in each case. The TGI in assay [8] was over 100 µM.
Regarding `COc1ccc(NC(=O)CC/C(CC(=O)c2ccco2)=N/NC(=O)C(N)=O)cc1`, the TGI in assay [1], in assay [2], in assay [3], in [4], in [5] and in assay [6] was over 100 µM in each case. Besides, in assay [7], the TGI was over 100 µM.
Regarding `O=S(=O)(C1=CC(S(=O)(=O)c2ccccc2)CN(Cc2ccccc2)C1c1cccc2ccccc12)c1ccccc1` (stereo not given), the TGI in [2], in assay [3], in assay [4], in [5], in assay [6] and in assay [7] was over 69 µM each time. The TGI in assay [8] is over 69 µM.
For `CC/C=C\C[C@H]1CC=C2C(=O)C=C[C@@H]2CC=CCCCC(=O)O[C@@H](CCCCC)CC=C2C(=O)C=C[C@@H]2CC=CCCCC(=O)O[C@@H](CCCCC)CC=C2C(=O)C=C[C@@H]2CC=CCCCC(=O)O[C@@H](CCCCC)CC=C2C(=O)C=C[C@@H]2CC=CCCCC(=O)O1`, the GI50 was 2.51 µM in assay [2]; 1.66 µM in assay [4]; 2.38 µM in [9]; 1.37 µM in assay [5]; 2.02 µM in assay [6]; 2.83 µM in [7]. In addition, the GI50 in [10] is 1.58 µM; in assay [8], 1.45 µM. Moreover, the TGI was over 7.9 µM in [2]; 4.01 µM in [4]; over 7.9 µM in assay [9]; 2.87 µM in assay [5]; 6.32 µM in assay [6]; over 7.9 µM in assay [7]. For the same compound, the TGI is over 7.9 µM in assay [10] and 3.13 µM in assay [8].
`COc1ccc(C=O)cc1O[Si](C)(C)C(C)(C)C`: the TGI in [1], in [2], in [3], in assay [4], in [5] and in [6] was over 100 µM in each case. For the same compound, the TGI in [7] and in assay [8] was over 100 µM each time.
Consider `CC1(O)C(C)(O)C2(C)O[Te]3(OC12C)OC1(C)C(C)(O)C(C)(O)C1(C)O3` (stereo not given), for which the TGI in assay [2] is over 100 µM; in assay [3] it was 70.8 µM; in [4], 41.5 µM; in assay [5] it was 37.6 µM; in [6], over 100 µM; in [7] it was over 100 µM. In addition, the TGI amounted to 51.3 µM in assay [10] and 23.8 µM in [8].
Turning to `CCN1C(=O)c2ccc3c4c(ccc(c24)C1=O)C(=O)N(CCCNCc1ccccc1OC)C3=O`, the GI50 in assay [2] was 0.63 µM; in assay [4] it was 0.335 µM; in assay [9] it was 0.613 µM; in [5], 0.671 µM; in assay [6], 0.377 µM; in [7] it was 1.33 µM. Moreover, the values for the GI50 in assay [10] and in [8] were 0.466 µM and 1.25 µM, respectively. The TGI was determined as 3.75 µM in assay [2]; 1.04 µM in assay [4]; 5.18 µM in [9]; 2.04 µM in assay [5]; 1.37 µM in assay [6]; 2.97 µM in assay [7]. The values for the TGI in assay [10] and in [8] were 6.3 µM and 3.32 µM, respectively.
As for `CCCOC(=O)N[C@H]1CCc2c(Cl)c(OC)c(OC)c(OC)c2-c2ccc(SC)c(=O)cc21`, the GI50 in [2], in assay [4], in [9], in assay [5], in assay [6] and in [7] was under 0.01 µM each time. The GI50 in [10] and in assay [8] was under 0.01 µM throughout. Further, the TGI in assay [2] is 1.63 µM; in [4], under 0.01 µM; in assay [9], over 100 µM; in assay [5], 8.41 µM; in assay [7], 27.4 µM; in assay [10], 19.2 µM. The TGI in [8] was 12.2 µM.
As for `CN(c1ccc(NC(=O)Nc2c(Cl)cccc2Cl)cc1)c1ccnc(Nc2cccc(CS(C)(=O)=O)c2)n1`, the GI50 in [2] was 0.104 µM; in assay [4], 1.65 µM; in [9], 1.56 µM; in assay [5], 2.23 µM; in assay [6], 1.54 µM; in assay [7], 4.5 µM. Moreover, the GI50 was 0.303 µM in [10] and 2.62 µM in assay [8]. The TGI is 5.12 µM in assay [2]; 5.2 µM in assay [4]; 8.6 µM in assay [9]; 8.08 µM in [5]; 12.6 µM in [6]; over 25 µM in [7]. In addition, the TGI is over 25 µM in [10] and 9.61 µM in assay [8].
